Data reported in ChEMBL document CHEMBL3739402, “Chromanones: selective and reversible monoamine oxidase B inhibitors with nanomolar potency” (Medchemcomm, 2015).

What was measured:
[1] = target: T1, Amine oxidase [flavin-containing] A (Homo sapiens, UniProt P21397); test: Inhibition of human MAO-A using p-tyramine as substrate assessed as production of H2O2 from p-tyramine incubated for 15 mins by Amplex Red MAO assay
T1 sequence (P21397 whole entry): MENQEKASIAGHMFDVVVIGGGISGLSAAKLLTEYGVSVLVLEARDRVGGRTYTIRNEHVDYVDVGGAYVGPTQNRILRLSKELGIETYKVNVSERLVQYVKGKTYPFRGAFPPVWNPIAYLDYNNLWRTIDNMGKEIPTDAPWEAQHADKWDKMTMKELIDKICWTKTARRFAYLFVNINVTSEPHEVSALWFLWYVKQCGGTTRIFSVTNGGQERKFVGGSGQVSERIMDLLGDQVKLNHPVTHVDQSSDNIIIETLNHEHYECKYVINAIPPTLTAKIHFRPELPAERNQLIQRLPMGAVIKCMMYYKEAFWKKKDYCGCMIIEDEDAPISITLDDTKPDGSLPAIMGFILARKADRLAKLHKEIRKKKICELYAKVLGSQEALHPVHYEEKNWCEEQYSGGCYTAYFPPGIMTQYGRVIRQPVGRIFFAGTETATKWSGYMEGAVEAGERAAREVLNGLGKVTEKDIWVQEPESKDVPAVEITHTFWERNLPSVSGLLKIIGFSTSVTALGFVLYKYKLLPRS

[2] = target: T2, Amine oxidase [flavin-containing] B (Homo sapiens, UniProt P27338); test: Inhibition of human MAO-B using p-tyramine as substrate assessed as production of H2O2 from p-tyramine incubated for 15 mins by Amplex Red MAO assay
T2 sequence (P27338 whole entry): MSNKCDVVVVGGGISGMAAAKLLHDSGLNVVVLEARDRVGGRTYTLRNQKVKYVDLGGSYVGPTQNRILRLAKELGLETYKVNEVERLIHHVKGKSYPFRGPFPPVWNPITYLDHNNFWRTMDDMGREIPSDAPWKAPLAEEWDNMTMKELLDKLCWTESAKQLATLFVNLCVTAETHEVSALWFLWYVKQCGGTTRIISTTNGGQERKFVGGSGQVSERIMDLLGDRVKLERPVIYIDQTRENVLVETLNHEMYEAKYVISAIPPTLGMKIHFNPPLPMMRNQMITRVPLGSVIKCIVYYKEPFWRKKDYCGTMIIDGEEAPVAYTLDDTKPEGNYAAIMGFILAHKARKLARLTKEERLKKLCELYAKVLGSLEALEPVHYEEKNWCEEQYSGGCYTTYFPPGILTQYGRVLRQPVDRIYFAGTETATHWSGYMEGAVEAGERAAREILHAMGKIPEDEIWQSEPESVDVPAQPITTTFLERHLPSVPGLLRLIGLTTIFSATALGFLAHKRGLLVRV

Homo sapiens = organism: Homo sapiens; test: Selectivity index, ratio of IC50 for human MAO-A to IC50 for human MA)-B by Amplex Red MAO assay
[3] = target: T1, Amine oxidase [flavin-containing] A; test: Inhibition of human MAO-A using p-tyramine as substrate assessed as production of H2O2 from p-tyramine at 100 uM incubated for 15 mins by Amplex Red MAO assay; conditions: 0.25 h
SH-SY5Y = test: Neurotoxicity against human SH-SY5Y cells assessed as cell viability at 3 to 50 uM after 48 hrs by MTT assay; format: toxicity, cell-based
[4] = target: T2, Amine oxidase [flavin-containing] B; test: Inhibition of human MAO-B preincubated at twice the IC50 for 30 mins
[5] = target: T2, Amine oxidase [flavin-containing] B; test: Inhibition of human MAO-B preincubated at twice the IC50 for 0 mins
[6] = target: T2, Amine oxidase [flavin-containing] B; test: Reversible inhibition of human MAO-B preincubated at twice the IC50 for 0 to 60 mins
[7] = target: T2, Amine oxidase [flavin-containing] B; test: Competitive inhibition of human MAO-B using 50 to 500 uM p-tyramine as substrate at 4.3 to 17.2 nM by Lineweaver-Burk plot analysis
[8] = target: T2, Amine oxidase [flavin-containing] B; test: Inhibition of human MAO-B preincubated at twice the IC50 for 15 mins
[9] = target: T2, Amine oxidase [flavin-containing] B; test: Time dependent inhibition of human MAO-B preincubated at twice the IC50 for 0 to 60 mins
[10] = target: T2, Amine oxidase [flavin-containing] B; test: Inhibition of human MAO-B preincubated at twice the IC50 for 60 mins

Row | IC50 [2] [nM] | inhibition at 100 µM [3] [%] | Compound | also measured
1 | 20500 |  | O=C1COc2cc(OCCCc3ccccc3)ccc21 | IC50 [1]: 39300 nM; Ratio IC50 (Homo sapiens): 1.9
2 | 21400 | 65 | O=C1CCOc2cc(OCCCc3ccccc3)ccc21 | 
3 |  | 19 | Cc1cccc(COc2ccc3c(c2)OCCC3=O)c1 | 
4 | 78900 |  | O=C1CCOc2cc(O)ccc21 | IC50 [1]: 71400 nM; Ratio IC50 (Homo sapiens): 0.9
5 | 15200 |  | O=C1COc2cc(OCc3ccccc3)ccc21 | IC50 [1]: 38200 nM; Ratio IC50 (Homo sapiens): 2.5
6 | 35.3 | 35 | O=C1CCOc2cc(OCc3cccc(Cl)c3)ccc21 | 
7 | 30.3 | 28 | O=C1CCOc2cc(OCc3cccc(Br)c3)ccc21 | 
8 | 55.4 | 31 | CC1(C)CC(=O)c2ccc(OCc3cccc(Cl)c3)cc2O1 | 
9 | 69.5 | 23 | CC1(C)CC(=O)c2ccc(OCc3ccc(C#N)cc3)cc2O1 | 
10 | 65.5 | 18 | CC1(C)CC(=O)c2ccc(OCc3cccc(F)c3)cc2O1 | 
11 | 98.3 | 18 | Cc1cccc(COc2ccc3c(c2)OC(C)(C)CC3=O)c1 | 
12 | 21.6 | 19 | O=C1CCOc2cc(OCc3ccc(Br)cc3)ccc21 | 
13 | 113 | 25 | Cc1ccc(COc2ccc3c(c2)OC(C)(C)CC3=O)cc1 | 
14 | 58.8 | 35 | O=C1CCOc2cc(OCc3ccccc3F)ccc21 | 
15 | 91.3 | 26 | Cc1ccc(COc2ccc3c(c2)OCCC3=O)cc1 | 
16 |  | 25 | CC1(C)CC(=O)c2ccc(OCc3ccc(F)cc3)cc2O1 | Activity (SH-SY5Y): Non-toxic
17 |  | 37 | O=C1CCOc2cc(OCc3ccc(Cl)cc3)ccc21 | 
18 |  | 28 | CC1(C)CC(=O)c2ccc(OCc3ccc(Cl)cc3)cc2O1 | 
19 | 57.4 | 18 | O=C1CCOc2cc(OCc3ccccc3)ccc21 | 
20 | 68.8 | 28 | CC1(C)CC(=O)c2ccc(OCc3ccccc3F)cc2O1 | 
21 | 47.3 | 27 | N#Cc1ccc(COc2ccc3c(c2)OCCC3=O)cc1 | 
22 | 2130 |  | O=C1COc2cc(OCCc3ccccc3)ccc21 | IC50 [1]: 46400 nM; Ratio IC50 (Homo sapiens): 21.8
23 |  | 43 | O=C1CCOc2cc(OCc3ccc(F)cc3)ccc21 | inhibition (INH) [4]: 45.5%; Activity (SH-SY5Y): Non-toxic; inhibition (INH) [5]: 42.4%; inhibition (INH) [6]: Active; inhibition (INH) [7]: Active; inhibition (INH) [8]: 44.5%; TDI [9]: Not Active; inhibition (INH) [10]: 49.6%
24 | 97.5 | 25 | CC1(C)CC(=O)c2ccc(OCc3ccccc3)cc2O1 | 
25 | 251 | 58 | O=C1CCOc2cc(OCCc3ccccc3)ccc21 | 
26 | 45.4 | 21 | CC1(C)CC(=O)c2ccc(OCc3ccc(Br)cc3)cc2O1 | 
27 | 52.2 | 16 | CC1(C)CC(=O)c2ccc(OCc3cccc(Br)c3)cc2O1 | 
28 | 52.6 | 26 | O=C1CCOc2cc(OCc3cccc(F)c3)ccc21 | Ratio IC50 (Homo sapiens): > 1900
